Laboratory results: ChEMBL document CHEMBL1201862, “PubChem BioAssay data set” (2004)
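Interpolation was linear, between the two tested concentrations surrounding the appropriate level; five concentrations were tested over 48 hours in 96-well plates. GI50: concentration for 50% inhibition of growth.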 Activity calls are given as the source filed them. Rule as the data show it: active = GI50 up to about 1.1 µM and inactive = higher.

Legend:
Assay in all cases: NCI tumour cell line growth inhibition, 48 h
M14 = tested on: M14
OVCAR-8 = tested on: OVCAR-8
SK-OV-3 = tested on: SK-OV-3
CCRF-CEM = tested on: CCRF-CEM
OVCAR-5 = tested on: OVCAR-5
786-0 = tested on: 786-0
OVCAR-3 = tested on: OVCAR-3
SNB-19 = tested on: SNB-19
TK-10 = tested on: TK-10
UACC-62 = tested on: UACC-62
SF-539 = tested on: SF-539
RXF 393 = tested on: RXF 393
HOP-92 = tested on: HOP-92
SNB-75 = tested on: SNB-75
SF-268 = tested on: SF-268
SR = tested on: SR
K562 = tested on: K562
SK-MEL-28 = tested on: SK-MEL-28
HCC 2998 = tested on: HCC 2998
HOP-62 = tested on: HOP-62

Measured: GI50

COC(=O)C1CCCC2(C1)OCCO2 (stereo not given)
inactive: M14 > 100 µM | OVCAR-8 > 100 µM | SK-OV-3 > 100 µM | CCRF-CEM > 100 µM | OVCAR-5 > 100 µM | 786-0 > 100 µM | OVCAR-3 > 100 µM | SNB-19 > 100 µM | TK-10 > 100 µM | UACC-62 > 100 µM | SF-539 > 100 µM | RXF 393 > 100 µM | HOP-92 > 100 µM | SNB-75 > 100 µM | SF-268 > 100 µM | SR > 100 µM | K562 > 100 µM | SK-MEL-28 > 100 µM | HCC 2998 > 100 µM | HOP-62 > 100 µM

COc1ccc(NC(=O)CSc2nc(C)nc3c2sc(=S)n3-c2ccccc2)cc1
inactive: M14 8.07 µM | OVCAR-8 > 10 µM | SK-OV-3 > 10 µM | CCRF-CEM > 10 µM | OVCAR-5 > 10 µM | 786-0 3.39 µM | OVCAR-3 6.15 µM | SNB-19 > 10 µM | TK-10 > 10 µM | UACC-62 > 10 µM | SF-539 2.43 µM | RXF 393 > 10 µM | HOP-92 2.11 µM | SNB-75 2.97 µM | SF-268 > 10 µM | SR > 10 µM | K562 > 10 µM | SK-MEL-28 > 10 µM | HCC 2998 > 10 µM | HOP-62 5.27 µM

COc1ccc(OC)c(C2Cc3cnc4nc(N)nc(N)c4c3C2)c1 (stereo not given)
inactive: M14 36.1 µM | OVCAR-8 26.2 µM | SK-OV-3 31.8 µM | CCRF-CEM 24.4 µM | OVCAR-5 32.9 µM | 786-0 24.2 µM | OVCAR-3 20.5 µM | SNB-19 38.4 µM | TK-10 26.2 µM | UACC-62 18.6 µM | SF-539 13.7 µM | RXF 393 19.9 µM | HOP-92 24.3 µM | SNB-75 17.4 µM | SF-268 34.2 µM | SR 19.4 µM | K562 19.1 µM | SK-MEL-28 33.7 µM | HCC 2998 26.3 µM | HOP-62 34.4 µM

C[C@H]1CCC2C(OC(=O)[C@@H]2CN(C)C)[C@]2(C)C(=O)C=CC12O (stereo not given in full)
inactive: M14 4.06 µM | OVCAR-8 1.57 µM | SK-OV-3 16.9 µM | CCRF-CEM 1.87 µM | OVCAR-5 14.1 µM | 786-0 5.26 µM | OVCAR-3 3.76 µM | SNB-19 22.9 µM | TK-10 6.68 µM | UACC-62 2.55 µM | SF-539 3.64 µM | RXF 393 1.65 µM | HOP-92 2.79 µM | SNB-75 4.6 µM | SF-268 6.79 µM | SR 2.47 µM | K562 3.23 µM | SK-MEL-28 2.43 µM | HCC 2998 5.2 µM | HOP-62 23.9 µM

Oc1ccccc1C(c1cc2c(cc1O)OCO2)N1CCOCC1 (stereo not given)
inactive: M14 17.9 µM | OVCAR-8 9.29 µM | SK-OV-3 19.8 µM | CCRF-CEM 2.14 µM | OVCAR-5 25 µM | 786-0 4.89 µM | OVCAR-3 17.5 µM | SNB-19 19.1 µM | TK-10 > 10 µM | UACC-62 17 µM | SF-539 20.7 µM | RXF 393 14.3 µM | HOP-92 17.3 µM | SNB-75 16.4 µM | SF-268 18.5 µM | SR 8.07 µM | K562 5.25 µM | SK-MEL-28 20.7 µM | HCC 2998 18.7 µM | HOP-62 38.8 µM

COCOC1C=CCCCC2=CC(C)=C(CC1)O2 (stereo not given)
inactive: M14 > 100 µM | OVCAR-8 > 100 µM | SK-OV-3 > 100 µM | CCRF-CEM 74.6 µM | OVCAR-5 > 100 µM | 786-0 > 100 µM | OVCAR-3 68.4 µM | SNB-19 > 100 µM | TK-10 > 100 µM | UACC-62 > 100 µM | SF-539 > 100 µM | RXF 393 > 100 µM | HOP-92 > 100 µM | SNB-75 > 100 µM | SF-268 > 100 µM | SR 61.7 µM | K562 > 100 µM | SK-MEL-28 > 100 µM | HCC 2998 > 100 µM | HOP-62 > 100 µM

O=C1NC2c3c(I)sc(I)c3C(=O)C2O1 (stereo not given)
inactive: M14 2.07 µM | OVCAR-8 2.84 µM | SK-OV-3 17.3 µM | CCRF-CEM 1.56 µM | OVCAR-5 14.3 µM | 786-0 7.13 µM | OVCAR-3 3.31 µM | SNB-19 13.2 µM | TK-10 10.9 µM | UACC-62 8.99 µM | SF-539 2.56 µM | RXF 393 5.56 µM | HOP-92 3.38 µM | SNB-75 13.1 µM | SF-268 6.76 µM | SR 2.96 µM | K562 4.65 µM | SK-MEL-28 7.41 µM | HCC 2998 3.95 µM | HOP-62 14.1 µM
